# Experimental data from US9776963B2, “Small molecule CD4 mimetics and uses thereof” (priority 2008, dated 2017).
# Several values for one entry are separate records, joined by “and”; a condition that tells them apart may be missing. Identical values can stand only once. Like-named read-outs stand apart in the source and are kept apart here.
# Experiments:
# [1] = tested on: viruses with HXBc2 or KB9 Env gps
# Description: The envelope glycoproteins were derived from CCR5-using (R5) primary HIV isolates (YU2 and ADA), dual-tropic (R5×4) primary isolates (89.6 and KB9) and, as a control, the amphotropic murine leukemia virus (A-MLV).
# HXBc2 gp120 = target: T1, HXBc2 gp120 (Human immunodeficiency virus type 1 group M subtype B, UniProt P04578); experiment: Compound binding assay with [3H]-NBD-556, HXBc2 gp120; set-up: species or system HIV
# T1 construct: (His)6 (C); made in house; host or cells: 293F cells
# [2] = tested on: viruses with the S375A change; assay type: cell-based; conditions: S375A envelope, compared with w.t.
# [3] = tested on: viruses with the S375W envelope glycoproteins; assay type: cell-based; conditions: Cf2Th-CCR5 cells
# [4] = tested on: recombinant HIV with the w.t. HIVYU2 envelope glycoproteins; experiment: microbe, parasite or virus in culture; assay type: cell-based; conditions: for IC50: w.t. YU2 envelope glycoproteins; for inhibition of HIV infection of cells expressing CD4 and CCR5 (in words): specificity versus A-MLV control
# [5] = NBD-556 compared with NBD-557
# [6] = tested on: viruses with gp120 Glu 429 replaced with lysine; assay type: cell-based
# D368A mutant viruses = assay type: cell-based; conditions: D368A envelope, CD4-CCR5+ target cells
# [7] = tested on: viruses with gp120 Glu 429 replaced with alanine; assay type: cell-based
# [8] = tested on: recombinant HIV with the wild-type HIVYU2 envelope glycoproteins; assay type: cell-based; conditions: w.t. YU2 envelope
# [9] = target: T2, w.t. HIV-1 YU2 gp120 glycoprotein (Human immunodeficiency virus type 1 group M subtype B, UniProt P35961); experiment: biochemical; assay type: binding; conditions: for Kd: w.t. gp120, ITC, 25° C.
# T2 construct: (His)6 (C); made in house; host or cells: 293F cells
# [10] = target: T3, HIV-1 YU2 gp120 glycoprotein D368A (Human immunodeficiency virus type 1 group M subtype B, UniProt P35961, D363A); experiment: biochemical; assay type: binding
# T3 construct: (His)6 (C); made in house; host or cells: 293F cells
# [11] = target: T4, HIV-1 YU2 gp120 glycoprotein D368A/S375A (Human immunodeficiency virus type 1 group M subtype B, UniProt P35961, D363A/S370A); experiment: biochemical; assay type: binding
# T4 construct: (His)6 (C); made in house; host or cells: 293F cells
# [12] = target: T5, HIV-1 YU2 gp120 glycoprotein V430A (Human immunodeficiency virus type 1 group M subtype B, UniProt P35961, V417A); experiment: biochemical; assay type: binding
# T5 construct: (His)6 (C); made in house; host or cells: 293F cells
# [13] = target: T6, HIV-1 YU2 gp120 glycoprotein S375A (Human immunodeficiency virus type 1 group M subtype B, UniProt P35961, S370A); experiment: biochemical; assay type: binding
# T6 construct: (His)6 (C); made in house; host or cells: 293F cells
# [14] = Human immunodeficiency virus 1, Cf2Th-CD4/CCR5, Cf2Th-CD4/CCR5 cells
molecule,measurement,setting,value
NBD-556,infection of CD4-CXCR4+ cells (in words),[1],did not enhance the entry
same,direct binding of 3H-labeled compound (in words),HXBc2 gp120,only moderately
same,enhancement of infection (in words),[2],greater enhancement
same,enhancement of infection (in words),[3],not enhanced
same,IC50,[4]; Cf2Th-CD4/CCR5 cells,> 100000 nM and 100000 nM
same,solubility (in words),[5],better solubility
same,activation of infection (in words),[6],eliminated the activation of infection
same,enhancement of infectivity (in words),D368A mutant viruses,enhanced
same,virus activation (in words),[7],less disruptive
CC1(C)CC(NC(=O)C(=O)Nc2ccc(Br)cc2)CC(C)(C)N1 [NBD-557],enhancement of HIV infection of CD4-CCR5+ cells (in words),[8],comparably to NBD-556
same,enhancement of infection (in words),[3],did not activate the entry
same,activation of infection (in words),[6],eliminated the activation of infection
same,enhancement of infectivity (in words),D368A mutant viruses,not enhanced
same,virus activation (in words),[7],significantly diminished
same,gp120 binding / affinity (in words),[9],comparably to NBD-556
CC1(C)CC(NC(=O)C(=O)Nc2ccc(Cl)c(F)c2)CC(C)(C)N1CCCO [XVII],inhibition of HIV infection of cells expressing CD4 and CCR5 (in words),[4],efficient and specific inhibition of HIV-1
CC1(C)CC(NC(=O)C(=O)Nc2ccc(Cl)c(F)c2)CC(C)(C)N1Cc1cn(CCCCCO)nn1 [XVI],inhibition of HIV infection of cells expressing CD4 and CCR5 (in words),[4],efficient and specific inhibition of HIV-1
CN1C(C)(C)CC(NC(=O)C(=O)Nc2ccc(Cl)c(F)c2)CC1(C)C [Compound III],IC50,[4]; [14],75000 nM
same,inhibition of HIV infection of cells expressing CD4 and CCR5 (in words),[4],"lowers the IC50, while maintaining specificity for HIV-1"
same,gp120 binding / affinity (in words),[9],increases affinity for gp120
same,Kd,[9],330 nM
COC(=O)CCCn1cc(CN2C(C)(C)CC(NC(=O)C(=O)Nc3ccc(Cl)c(F)c3)CC2(C)C)nn1 [XVIII],inhibition of HIV infection of cells expressing CD4 and CCR5 (in words),[4],efficient and specific inhibition of HIV-1
"CC1(C)CC(NC(=O)C(=O)Nc2ccc(Cl)c(F)c2)CC(C)(C)N1 [Compound II, N1-(4-Chloro-3-fluorophenyl)-N2-(2,2,6,6-tetramethylpiperidin-4-yl)oxalamide]",infection of CD4-CXCR4+ cells (in words),[1],neither of these Env gps supported infection
same,Kd,[10],720 nM
same,enhancement of HIV infection of CD4-CCR5+ cells (in words),[8],most potent stimulation of HIV infection
same,enhancement of HIV infection of CD4-CCR5+ cells (in words),[8]; listed as compound II,only compound II activated HIV infection
same,enhancement of infection (in words),[3],did not activate the entry
same,IC50,[4]; Cf2Th-CD4/CCR5 cells,54000 nM
same,IC50,[4]; [14],90000 nM
same,inhibition of HIV infection of cells expressing CD4 and CCR5 (in words),[4],specifically inhibited HIVYU2 infection
same,activation of infection (in words),[6],eliminated the activation of infection
same,Kd,[11],83 nM
same,enhancement of infectivity (in words),D368A mutant viruses,enhanced
same,Kd,[12],1000 nM
same,virus activation (in words),[7],significantly diminished
same,Kd,[13],140 nM
same,gp120 binding / affinity (in words),[9],highest affinity for gp120
same,gp120 binding / affinity (in words),[9]; listed as compound II,better gp120 binding than NBD-556 or NBD-557
same,Kd,[9],800 nM
CC1(C)CC(NC(=O)C(=O)Nc2ccc(Cl)c(Cl)c2)CC(C)(C)N1 [V],gp120 binding / affinity (in words),[9],better gp120 binding than NBD-556 or NBD-557
